From patent US11073508B2, “Rapid conductance based ion channel analysis” (Arizona Board of Regents on Behalf of the University of …, priority 2017, dated 2021)

What was measured:
Format in all cases: biochemical
[1] = test system: Gramicidin A (gA) channels in DPhPC BLM; assay: Fast solution exchange with gA-functionalized BLMs, conductance protocol F (Example 1); conditions: gA-functionalized BLM on 3 μm aperture pipette; Ca^2+ switched from 0 to 1 M
Protocol: (§1) All electrophysiological measurements were performed using a HEKA Electronik EPC-10 Double patch clamp amplifier (Germany) using PatchMaster software (v2.73). Data were digitized at 20 kHz and filtered at 1 kHz, unless otherwise specified. BLM conductance was measured using several multi-step voltage protocols. All protocols were evaluated against a 21-point reference protocol that applied 50 ms potential pulses ranging from −100 to +100 mV, in 10 mV intervals. Each pulse was preceded by a 10 ms rest at a holding potential of 0 mV and followed by a 1000 ms rest to ensure the bilayer capacitance was fully discharged before proceeding to the next potential step. The slope of the i-V curve is the BLM conductance, GBLM (pA/mV), and the resistance, RBLM, is (GBLM)^−1.
A 1 mg/mL stock solution of gA in EtOH was prepared and stored at 4° C. for up to two weeks. […]
A dual-port perfusion apparatus was fabricated from a two-barrel theta capillary. […] The 10-90% response time of the solution exchange was determined by laterally translating the theta capillary tip to alternately deliver recording buffer and Ca^2+ solution to the pipette tip, which was positioned ˜200 μm from the outlet of the theta capillary tip, while monitoring the change in current through the pipette aperture at a holding potential of −20 mV. […]

[2] = test system: Gramicidin A (gA) channels in DPhPC BLM; assay: High speed solution exchange with gA-functionalized BLM, sub-ms conductance protocol (Example 2); conditions: recording buffer switched to recording buffer + 1 M Ca^2+, 0.9 ms protocol, 10 kHz filter
From the text: Electrophysiological data was acquired with a HEKA EPC-10 Single patch clamp amplifier and digitized with Patchmaster software (v. 2.73). Single channel recordings were obtained at a −100 mV holding voltage, digitized at 20 kHz and filtered at 1 kHz, unless otherwise stated. Sub-millisecond conductance measurements were collected at 200 kHz and filtered at 10 kHz. Noise values were obtained from the Noise Panel present in Patchmaster software which measures instrument noise through the amplifier's 4-pole, low-pass Bessel filter.
Membrane conductance values were evaluated against a 21-point reference protocol that applied a 50 ms voltage pulses ranging from −100 to +100 mV, in 10 mV intervals. Each pulse was preceded by a 10 ms rest at a holding voltage of 0 mV and followed by a 1000 ms rest (0 mV) to ensure the bilayer capacitance was fully discharged before proceeding to the next voltage step. […]
Fast solution switching experiments were performed with a High Speed Solution Exchange-2/3 system (ALA Scientific, New York), A BLM pipette was positioned about 1 mm away and equidistant from the outflow of two tubes approximately perpendicular from one another. […] The solution composition perfusing across the BLM pipette was rapidly switched using a solenoid pinch valve and the membrane conductance was measured using the patch clamp amplifier. Membrane conductance was assessed as described above. […]

[3] = Single channel recording of gA in DPhPC BLM
Protocol: as §1
A 1 mg/mL stock solution of gA in EtOH was prepared and stored at 4° C. for up to two weeks. For use, the solution was diluted to 1 μg/mL in EtOH and 0.5-1 μL aliquots were injected into the bath solution at a position ca. 5 mm from the pipette tip while monitoring current at a holding potential of −100 mV. […]
Gramicidin A dimerizes in lipid bilayers to form non-selective, cation-permeable ICs and is widely used as a model IC for illustrating BLM formation. […] The conductance of the BLM was measured using protocols A and E with recording buffer on both sides of the membrane. […]

Compound	decrease in normalized BLM conductance using the mean of a 1 s window before and after solution exchange [1]	decrease in membrane conductance upon application of 1 M Ca^2+ [2]	increase in membrane conductance by an individual gA ion channel ([3]; 1 M KCl solutions)	current contributed by each gA channel ([3]; holding potential −100 mV, recording buffer 1 M KCl on both sides, DPhPC BLM, 3 μm aperture)
[Ca+2].[Cl-].[Cl-] [Ca^2+, CaCl2]	81.9±13.5%	~60%	–	–
Gramicidin A [gA]	–	–	~20 fA/mV	~2 pA
